A short description of data set [1]: in vitro. The note with it: human, liver microsomes. For orientation: Microsomes from liver hold many membrane-bound enzymes, among them those of drug oxidation.
Description: Metabolic stability in human liver microsomes
Data set [2] can be described thus: physchem. The following applies: buffer, pH 7.4.
A short description of data set [3]: physchem. The following applies: buffer, pH 7.4. The source holds these as a separate data set.
The nature of data set [4]: in vitro. The note with it: human, Caco-2.
Description: Passive permeability from apical to basolateral side in human Caco-2 cells
A short description of data set [5]: physchem.
Description: Dissociation constant, pKa1 of compound by spectrophotometry
The nature of data set [6]: physchem. The source holds these as a separate data set.
Description: Dissociation constant, pKa2 of compound by spectrophotometry
Data set [7] in a line: physchem. The note with it: 0.1 M HCl solution, pH 1.
Description: Half life in 0.1 M HCl solution at pH 1.0 at 25 degC by UPLC analysis
Data set [8] in a line: physchem. The note with it: 20 mM sodium phosphate buffer, pH 7.4.
Description: Half life in 20 mM sodium phosphate buffer at pH 7.4 at 25 degC by UPLC analysis
Data set [9] can be described thus: physchem. The following applies: 20 mM sodium carbonate buffer, pH 10.
Description: Half life in 20 mM sodium carbonate buffer at pH 10 at 25 degC by UPLC analysis
The nature of data set [10]: Stability in neat DMSO at 10 mM at room temperature under air without protection from sunlight measured after 1 month by LC-MS analysis. The note with it: 730 h, 10000 µM, time 1 months. Format: physicochemical.
A short description of data set [11]: Stability in neat […] DMSO/H2O 1:4 mixture assessed as compound hydrolysis at 10 mM at room temperature under air without protection from sunlight measured after 1 month by LC-MS analysis. The following applies: 730 h, 10000 µM, time 1 months. Format: physicochemical.
Data set [12] is described as follows: Stability in neat […] DMSO/H2O 1:4 mixture assessed as compound hydrolysis at 10 mM at room temperature under air without protection from sunlight measured after 1 month by NMR analysis. Format: physicochemical. The note with it: 730 h, 10000 µM, time 1 months.
Data set [13] in a line: Stability in neat […] DMSO/H2O 1:4 mixture assessed as compound hydrolysis at 10 mM at room temperature under air without protection from sunlight measured after 0.5 hrs by LC-MS analysis. In kind it is physicochemical. The following applies: 10000 µM.
The nature of data set [14]: Stability in presence of glutathione by LC-MS analysis. In kind it is physicochemical. The note with it: solution with glutathione.
A short description of data set [15]: Stability in absence of glutathione by LC-MS analysis. In kind it is physicochemical. The note with it: gsh.
The nature of data set [16]: Stability in neat […] DMSO/H2O 1:4 mixture assessed as compound hydrolysis at 10 mM at room temperature under air without protection from sunlight measured after 24 hrs by LC-MS analysis. Format: physicochemical. The following applies: read-out: Drug degradation.

Structures are written as SMILES. Bounds are passed on as bounds.

The microsomal CLint is a measure of how fast metabolising enzymes remove a compound, apart from limits set by blood flow. Lower therefore signals greater metabolic stability. The term logD denotes lipophilicity at a set pH, counting ionised and neutral species. Read a low logD as a more hydrophilic compound. Usually chromatographic logD stands for a lipophilicity value derived from retention on a column. Higher therefore signals higher lipophilicity. Usually Papp A→B stands for the apparent permeability from the apical to the basolateral side of a cell layer. Low values mean slow passage, high ones fast passage. Broadly, the pKa is the pH at which an ionisable group is half protonated. In “in vitro [1]”, `Cc1ccc(-c2cn(C)cn2)cc1NC(=O)c1ccc(OCc2ccccn2)cc1` registered a microsomal CLint of 4.8 µL/min/mg. The compound also came in with a logD in “physchem [2]” of 2.7. This compound gave a chromatographic logD in “physchem [3]” of 2.2. In the data set “in vitro [4]”, this compound displayed a Papp A→B of 72 ×10⁻⁶ cm/s. Moreover, the pKa turned out to be 5.8 in the data set “physchem [5]” and 3.9 in the data set “physchem [6]”.
For the compound `Cn1c(-c2cscn2)nc2ccccc21`, the microsomal CLint in “in vitro [1]” stood at 172 µL/min/mg. Besides, in “physchem [2]”, the logD was 2.3. In “physchem [3]”, the chromatographic logD amounted to 1.5. In addition, the Papp A→B in the data set “in vitro [4]” was 72 ×10⁻⁶ cm/s. The compound further displayed a pKa in “physchem [5]” of 4.9.
In “in vitro [1]”, `CC(=O)c1ccc(N2CCN(C(=O)c3cnn(C)c3)CC2)cc1` registered a microsomal CLint of less than 3 µL/min/mg. This compound showed a logD in the data set “physchem [2]” of 1.1. In the data set “physchem [3]”, the chromatographic logD came to 0.6. Further, the Papp A→B in the data set “in vitro [4]” is 42 ×10⁻⁶ cm/s.
`COc1ccc(CC(=O)Nc2cnn(C)c2)cc1OC` displayed a microsomal CLint in “in vitro [1]” of less than 3 µL/min/mg. In addition, in the data set “physchem [2]”, the logD was 0.9. Further, in the data set “physchem [3]”, the chromatographic logD turned out to be 0.1. The Papp A→B in the data set “in vitro [4]” was found to be 42 ×10⁻⁶ cm/s.
`CCCCN(C)c1ccc(C(=O)OCCN(C)C)cc1`: in “physchem [2]”, the logD was 2.8. The compound also returned a chromatographic logD in “physchem [3]” of 3.3.
Broadly, the half-life is the time in which the quantity being followed falls by half. Turning to `CN(C)[C@H]1CC[C@H](Nc2nc(Nc3cnn(C(F)(F)F)c3)nn3cccc23)CC1`, the microsomal CLint in “in vitro [1]” is less than 3 µL/min/mg. The half-life in “physchem [7]” is more than 72 days; in “physchem [8]”, more than 72 days; in the data set “physchem [9]”, 71 days. In addition, the logD in “physchem [2]” came to 2.2. Also, in the data set “physchem [3]”, the chromatographic logD amounted to 2.2. In “in vitro [4]”, this compound had a Papp A→B of 12 ×10⁻⁶ cm/s.
In the case of `FC(F)(F)n1cccn1`, the Stabilty entry in data set [10], in [11] and in data set [12] was “Stable” each time.
Compound `CC(=O)c1ccc(N2CCN(C(=O)c3cnn(C(C)(C)C)c3)CC2)cc1` showed a microsomal CLint in “in vitro [1]” of less than 4.5 µL/min/mg. In “physchem [2]”, this compound displayed a logD of 2.2. In the data set “physchem [3]”, this compound registered a chromatographic logD of 2.2. In addition, the Papp A→B in the data set “in vitro [4]” was 66 ×10⁻⁶ cm/s.
`COc1ccc(CC(=O)Nc2cnn(C(C)C)c2)cc1OC` registered a microsomal CLint in the data set “in vitro [1]” of less than 3.3 µL/min/mg. In “physchem [2]”, this compound showed a logD of 1.6. For the same compound, in “physchem [3]”, the chromatographic logD turned out to be 0.9. In addition, the apical-to-basolateral permeability (Papp A→B) in “in vitro [4]” amounted to 44 ×10⁻⁶ cm/s.
Take `FC(F)(F)N1CCc2ccccc21`: the figures for the Stabilty entry in [10] and in data set [13] were “Stable” and “Unstable”, respectively.
In turn, `COc1ccc(CC(=O)Nc2cnn(C(C)(C)C)c2)cc1OC` displayed a microsomal CLint in “in vitro [1]” of less than 4.1 µL/min/mg. The logD in the data set “physchem [2]” was 2. In “physchem [3]”, this compound had a chromatographic logD of 1.6. Also, the Papp A→B in “in vitro [4]” is 45 ×10⁻⁶ cm/s.
On to `CCN(c1ccccc1)C(F)(F)F`, for which the Stabilty result in [10] is on record as “Stable”; in data set [13], “Unstable”.
Turning to `CCCc1nn(C)c2c(=O)[nH]c(-c3cc(S(=O)(=O)N4CCN(C(F)(F)F)CC4)ccc3CC)nc12`, the results for the half-life in “physchem [7]”, in “physchem [8]” and in “physchem [9]” were less than 1.3 days, less than 0.8 days and less than 0.5 days, respectively. Besides, in the data set “physchem [2]”, the logD was more than 4. In “physchem [3]”, the chromatographic logD was more than 5.3.
In turn, `CN(C)[C@H]1CC[C@H](Nc2nc(Nc3cnn(C(C)(C)C)c3)nn3cccc23)CC1` yielded a microsomal CLint in “in vitro [1]” of less than 3 µL/min/mg. In the data set “physchem [2]”, the logD was 1.7. Also, in “physchem [3]”, the chromatographic logD was determined as 1.5. In “in vitro [4]”, this compound displayed a Papp A→B of 11 ×10⁻⁶ cm/s.
Regarding `FC(F)(F)N1CCCc2ccccc21`, the results for the Stabilty result in data set [10] and in data set [13] were “Stable” and “Unstable”, respectively.
With `Cc1ccc(N(C)C(F)(F)F)cc1`, the Stabilty result in data set [10] was “Stable”; in data set [13], “Unstable”.
Take `FC(F)(F)N1CCN(c2ccccc2)CC1`: the results for the Stabilty entry in data set [10] and in [13] were “Stable” and “Unstable”, respectively.
As to `CCOC(=O)N(Cc1ccccc1)C(F)(F)F`, the Stabilty entry in data set [10] was “Stable”; in data set [13], “Unstable”.
Turning to `CCCCN(C(=O)F)c1ccc(C(=O)OCCN(C)C)cc1`, the half-life in data set [14] is 66 min; in data set [15] it was 237 min.
In the case of `Cc1cc(NS(=O)(=O)c2ccc(N(C)C)cc2)no1`, the logD in “physchem [2]” stood at 0.6. In “physchem [3]”, this compound displayed a chromatographic logD of 1.3.
As for `CN(c1ccc(F)cc1)C(F)(F)F`, the Stabilty entry in data set [10] is “Stable”.
Regarding `CC(=O)c1ccc(N2CCN(C(=O)c3cnn(C(F)(F)F)c3)CC2)cc1`, the microsomal CLint in the data set “in vitro [1]” is less than 3 µL/min/mg. Besides, the values for the half-life in “physchem [7]”, in “physchem [8]” and in “physchem [9]” were 41 days, more than 72 days and 17 days, respectively. The same compound came in with a logD in the data set “physchem [2]” of 1.9. The same compound displayed a chromatographic logD in the data set “physchem [3]” of 2.3. The Papp A→B in “in vitro [4]” amounted to 71 ×10⁻⁶ cm/s.
As to `Cc1cc(NS(=O)(=O)c2ccc(N(C)C(F)(F)F)cc2)no1`, the half-life was 0.2 days in the data set “physchem [7]”, 0.4 days in “physchem [8]” and 0.3 days in the data set “physchem [9]”. In “physchem [2]”, the logD was found to be 1.6. In addition, the chromatographic logD in the data set “physchem [3]” was found to be 1.5.
On to `COc1ccc(CC(=O)Nc2cnn(C(F)(F)F)c2)cc1OC`, for which, in “in vitro [1]”, the microsomal CLint stood at 53 µL/min/mg. The half-life is 12 days in the data set “physchem [7]”, more than 72 days in the data set “physchem [8]” and more than 72 days in the data set “physchem [9]”. Besides, the logD in “physchem [2]” was determined as 2.4. The chromatographic logD in the data set “physchem [3]” turned out to be 2.2. In addition, the Papp A→B in the data set “in vitro [4]” amounted to 56 ×10⁻⁶ cm/s.
As to `CC(C)n1cc(Nc2nc(N[C@H]3CC[C@H](N(C)C)CC3)c3cccn3n2)cn1`, the microsomal CLint in “in vitro [1]” was less than 3 µL/min/mg. In the data set “physchem [2]”, this compound showed a log distribution coefficient (logD) of 1.4. In the data set “physchem [3]”, this compound gave a chromatographic logD of 1.1. In the data set “in vitro [4]”, this compound showed a Papp A→B of 8.4 ×10⁻⁶ cm/s.
As for `CN(c1cccc(F)c1)C(F)(F)F`, the Stabilty result in data set [10] was “Stable”.
Turning to `FC(F)(F)n1c(-c2cscn2)nc2ccccc21`, in “in vitro [1]”, the microsomal CLint came out at 39 µL/min/mg. Besides, the half-life in the data set “physchem [7]”, in the data set “physchem [8]” and in the data set “physchem [9]” was more than 72 days each time. In addition, in “physchem [2]”, the logD came to 3. The chromatographic logD in the data set “physchem [3]” is 3.3. The same compound returned a Papp A→B in “in vitro [4]” of 58 ×10⁻⁶ cm/s. For the same compound, the pKa in the data set “physchem [5]” was less than 2.
`CN(c1ccccc1)C(F)(F)F`: the Stabilty result in [10] is on record as “Stable”; in data set [13], “Unstable”.
Regarding `CCCc1nn(C)c2c(=O)[nH]c(-c3cc(S(=O)(=O)N4CCN(C)CC4)ccc3CC)nc12`, in “physchem [2]”, the logD came to 2.7. Also, in “physchem [3]”, the chromatographic logD was 3.3.
In the case of `CC(=O)c1ccc(N2CCN(C(=O)c3cnn(C(C)C)c3)CC2)cc1`, the microsomal CLint in the data set “in vitro [1]” was less than 4.2 µL/min/mg. The logD in “physchem [2]” worked out at 1.8. The compound also showed a chromatographic logD in the data set “physchem [3]” of 1.5. The Papp A→B in the data set “in vitro [4]” came to 40 ×10⁻⁶ cm/s.
On to `FC(F)(F)n1cnc2ccccc21`, for which the Stabilty result in data set [10], in [11] and in data set [12] was “Stable” throughout.
As to `Cn1cc(Nc2nc(N[C@H]3CC[C@H](N(C)C)CC3)c3cccn3n2)cn1`, in “in vitro [1]”, the microsomal CLint is less than 3 µL/min/mg. The log distribution coefficient (logD) in “physchem [2]” is 0.6. For the same compound, the chromatographic logD in “physchem [3]” is less than 0. In “in vitro [4]”, the Papp A→B is 2.4 ×10⁻⁶ cm/s.
On to `COc1ccc(N(C)C(F)(F)F)cc1`, for which the Stabilty result in data set [10] is “Stable”; in [13] it was “Unstable”.
For the compound `CCCCN(c1ccc(C(=O)OCCN(C)C)cc1)C(F)(F)F`, the half-life in “physchem [7]”, in “physchem [8]” and in “physchem [9]” was less than 0.6 days each time. Moreover, in the data set “physchem [2]”, the logD is more than 4. The compound also had a chromatographic logD in the data set “physchem [3]” of 4.9.
Regarding `CN(c1ccc(C(F)(F)F)cc1)C(F)(F)F`, the Stabilty result in data set [10] was “Stable”. Moreover, the degraded at 24 h, 10000 µM in data set [16] came to 90%.
Take `CN(c1ccc(C#N)cc1)C(F)(F)F`: in [10], the Stabilty entry is “Stable”. For the same compound, the degraded at 24 h, 10000 µM in data set [16] worked out at 24%.

For the origin of these results see ChEMBL document CHEMBL4665890, “N-Trifluoromethyl Amines and Azoles: An Underexplored Functional Group in the Medicinal Chemist's Toolbox” (J Med Chem, 2020).
